Measurements published in ChEMBL document CHEMBL5154722, “Identification of new potent anticancer derivatives through simplifying the core structure and modification on their 14- hydroxyl group from oridonin” (Eur J Med Chem, 2022).

Key:
[1] = tested on: K562; test: Antiproliferative activity against human K562 cells assessed as reduction in cell viability incubated for 72 hrs by MTT assay; type: functional, cell-based; conditions: K562, 72 h
[2] = tested on: MCF7; test: Antiproliferative activity against human MCF7 cells assessed as reduction in cell viability incubated for 72 hrs by MTT assay; type: functional, cell-based; conditions: MCF7, 72 h
[3] = tested on: MDA-MB-231; test: Antiproliferative activity against human MDA-MB-231 cells assessed as reduction in cell viability incubated for 72 hrs by MTT assay; type: functional, cell-based; conditions: MDA-MB-231, 72 h
[4] = tested on: SMMC-7721; test: Antiproliferative activity against human […] cells assessed as reduction in cell viability incubated for 72 hrs by MTT assay; type: functional, cell-based; conditions: SMMC-7721, 72 h
[5] = tested on: HeLa; test: Antiproliferative activity against human HeLa cells assessed as reduction in cell viability incubated for 72 hrs by MTT assay; type: functional, cell-based
[6] = Cytotoxicity against human L02 cells assessed as reduction in cell viability incubated for 72 hrs by MTT assay; type: toxicity, cell-based
[7] = Selectivity index, ratio of IC50 for human L02 cells to IC50 for human SMMC-7721 cells; type: toxicity; conditions: L02 cells and SMMC-7721 cells, read-out: Ratio IC50
[8] = Antiproliferative activity against human U-87 MG cells assessed as reduction in cell viability incubated for 72 hrs by MTT assay; type: functional, cell-based, U-87MG ATCC
[9] = tested on: H22; test: Antiproliferative activity against mouse H22 cells assessed as reduction in cell viability incubated for 72 hrs by MTT assay; type: functional, cell-based; conditions: H22, 72 h
[10] = tested on: SW480; test: Antiproliferative activity against human SW480 cells assessed as reduction in cell viability incubated for 72 hrs by MTT assay; type: functional, cell-based; conditions: SW480, 72 h
[11] = tested on: MGC-803; test: Antiproliferative activity against human MGC-803 cells assessed as reduction in cell viability incubated for 72 hrs by MTT assay; type: functional, cell-based; conditions: MGC-803, 72 h

Row | IC50 [1] [µM] | Compound | also measured
1 | 3.7 | C=C1C(=O)[C@]23[C@H](OC(=O)/C=C/c4ccc5ccccc5c4)[C@H]1CC[C@H]2[C@]12CCCC(C)(C)[C@H]1[C@H](O)[C@@]3(O)OC2 | 
2 | 1.37 | C=C1C(=O)[C@]23[C@H](OC(=O)/C=C/c4cccc(Br)n4)[C@H]1CC[C@H]2[C@]12C=CCC(C)(C)[C@H]1[C@H](O)[C@@]3(O)OC2 | 
3 | 0.56 | C=C1C(=O)[C@]23[C@H](OC(=O)/C=C/c4cccnc4)[C@H]1CC[C@H]2[C@]12CCCC(C)(C)[C@H]1C[C@@]3(O)OC2 | 
4 | 0.54 | C=C1C(=O)[C@]23[C@H](OC(=O)/C=C/c4cccnc4)[C@H]1CC[C@H]2[C@]12C=CCC(C)(C)[C@H]1[C@H](O)[C@@]3(O)OC2 | 
5 | 3.64 | C=C1C(=O)[C@]23[C@H](OC(=O)CCCc4ccccc4)[C@H]1CC[C@H]2[C@]12C=CCC(C)(C)[C@H]1[C@H](O)[C@@]3(O)OC2 | 
6 | 5.46 | C=C1C(=O)[C@]23[C@H](OC(=O)c4ccc(C)cc4)[C@H]1CC[C@H]2[C@]12CCCC(C)(C)[C@H]1C[C@@]3(O)OC2 | 
7 | 4.38 | C=C1C(=O)[C@]23[C@H](OC(=O)c4ccc(Br)cc4)[C@H]1CC[C@H]2[C@]12CCCC(C)(C)[C@H]1[C@H](O)[C@@]3(O)OC2 | 
8 | 3.45 | C=C1C(=O)[C@]23[C@H](OC(=O)c4ccccc4)[C@H]1CC[C@H]2[C@]12CCCC(C)(C)[C@H]1[C@H](O)[C@@]3(O)OC2 | 
9 | 1.51 | C=C1C(=O)[C@]23[C@H](OC(=O)/C=C/c4ccc[nH]4)[C@H]1CC[C@H]2[C@]12C=CCC(C)(C)[C@H]1[C@H](O)[C@@]3(O)OC2 | 
10 | 1.2 | C=C1C(=O)[C@]23[C@H](OC(C)=O)[C@H]1CC[C@H]2[C@]12CCCC(C)(C)[C@H]1C[C@@]3(O)OC2 | 
11 | 3.01 | C=C1C(=O)[C@]23[C@H](OC(=O)c4ccc(C)cc4)[C@H]1CC[C@@]2(C)[C@]12CCCC(C)(C)[C@H]1[C@H](O)[C@@]3(O)OC2 | 
12 | 3.09 | C=C1C(=O)[C@]23[C@H](OC(=O)/C=C/c4cccnc4Br)[C@H]1CC[C@H]2[C@]12C=CCC(C)(C)[C@H]1[C@H](O)[C@@]3(O)OC2 | 
13 | 1.52 | C=C1C(=O)[C@]23[C@H](OC(=O)/C=C/c4ccc(OC)nc4)[C@H]1CC[C@H]2[C@]12C=CCC(C)(C)[C@H]1[C@H](O)[C@@]3(O)OC2 | 
14 | 1.44 | C=C1C(=O)[C@]23[C@H](OC(=O)/C=C/c4ccco4)[C@H]1CC[C@H]2[C@]12CCCC(C)(C)[C@H]1C[C@@]3(O)OC2 | 
15 | 0.83 | C=C1C(=O)[C@]23[C@H](OC(=O)/C=C/c4ccc(F)nc4)[C@H]1CC[C@H]2[C@]12C=CCC(C)(C)[C@H]1[C@H](O)[C@@]3(O)OC2 | 
16 | 2.88 | C=C1C(=O)[C@]23[C@H](OC(=O)/C=C/c4ccc5ccccc5c4)[C@H]1CC[C@H]2[C@]12C=CCC(C)(C)[C@H]1[C@H](O)[C@@]3(O)OC2 | 
17 | 0.39 | C=C1C(=O)[C@]23[C@H](OC(=O)/C=C/C)[C@H]1CC[C@H]2[C@]12CCCC(C)(C)[C@H]1[C@H](O)[C@@]3(O)OC2 | 
18 | 1.98 | C=C1C(=O)[C@]23[C@H](O)[C@H]1CC[C@H]2[C@]12CCCC(C)(C)[C@H]1C[C@@]3(O)OC2 | IC50 [2]: 2.97 µM; IC50 [3]: 2.51 µM; IC50 [4]: 2.96 µM
19 | 2.74 | C=C1C(=O)[C@]23[C@H](OC(=O)/C=C/c4ccccc4)[C@H]1CC[C@H]2[C@]12CCCC(C)(C)[C@H]1C[C@@]3(O)OC2 | 
20 | 0.9 | C=C1C(=O)[C@]23[C@H](OC(=O)C=C(C)C)[C@H]1CC[C@H]2[C@]12CCCC(C)(C)[C@H]1[C@H](O)[C@@]3(O)OC2 | 
21 | 0.8 | C=C1C(=O)[C@]23[C@H](OC(=O)/C=C/c4ccsc4)[C@H]1CC[C@H]2[C@]12CCCC(C)(C)[C@H]1C[C@@]3(O)OC2 | 
22 | 3.29 | C=C1C(=O)[C@]23[C@H](OC(=O)c4ccccc4C)[C@H]1CC[C@H]2[C@]12CCCC(C)(C)[C@H]1[C@H](O)[C@@]3(O)OC2 | 

Row | IC50 [1] [µM] | Compound | also measured
23 | 1.67 | C=C1C(=O)[C@@]23C(=O)[C@@H](OC(C)=O)[C@@H]4C(C)(C)CC=C[C@@]4(COC(C)=O)[C@@H]2CC[C@@H]1[C@H]3OC(C)=O | IC50 [2]: 3.57 µM; IC50 [3]: 3.14 µM; IC50 [4]: 2.92 µM
24 | 1.76 | C=C1C(=O)[C@]23[C@H](OC(=O)/C=C/c4ccccc4)[C@H]1CC[C@H]2[C@]12CCCC(C)(C)[C@H]1[C@H](O)[C@@]3(O)OC2 | 
25 | 4.63 | C=C1C(=O)[C@@]23C(CC[C@@H]1[C@H]2OC(=O)c1ccc(F)cc1)[C@]12CCCC(C)(C)C1[C@H](O)[C@@]3(O)OC2 (stereo partly drawn) | 
26 | 5.34 | C=C1C(=O)[C@]23[C@H](OC(C)=O)[C@H]1CC[C@H]2[C@]12CCCC(C)(C)[C@H]1[C@H](O)[C@@]3(O)OC2 | 
27 | 1.52 | C=C1C(=O)[C@]23[C@H](OC(=O)/C=C/c4ccco4)[C@H]1CC[C@H]2[C@]12C=CCC(C)(C)[C@H]1[C@H](O)[C@@]3(O)OC2 | 
28 | 1.34 | C=C1C(=O)[C@]23[C@H](OC(=O)/C=C/c4ccsc4)[C@H]1CC[C@H]2[C@]12C=CCC(C)(C)[C@H]1[C@H](O)[C@@]3(O)OC2 | 
29 | 2.8 | C=C1C(=O)[C@]23[C@H](OC(=O)/C=C/c4cccc5c4OCO5)[C@H]1CC[C@H]2[C@]12C=CCC(C)(C)[C@H]1[C@H](O)[C@@]3(O)OC2 | 
30 | 2.9 | C=C1C(=O)[C@]23[C@H](OC(=O)/C=C/c4ccc5ccccc5n4)[C@H]1CC[C@H]2[C@]12C=CCC(C)(C)[C@H]1[C@H](O)[C@@]3(O)OC2 | 
31 | 1.03 | C=C1C(=O)[C@@]23C(=O)[C@@H](OC(C)=O)[C@@H]4C(C)(C)CCC[C@@]4(COC(C)=O)[C@@H]2CC[C@@H]1[C@H]3OC(C)=O | IC50 [2]: 2.06 µM; IC50 [3]: 1.59 µM; IC50 [4]: 2.27 µM
32 | 2.83 | C=C1C(=O)[C@]23[C@H](OC(=O)c4cccc(C)c4)[C@H]1CC[C@H]2[C@]12CCCC(C)(C)[C@H]1[C@H](O)[C@@]3(O)OC2 | 
33 | 2.58 | C=C1C(=O)[C@]23[C@H](OC(=O)/C=C/c4cccc5[nH]ccc45)[C@H]1CC[C@H]2[C@]12C=CCC(C)(C)[C@H]1[C@H](O)[C@@]3(O)OC2 | 
34 | 4.05 | C=C1C(=O)[C@]23[C@H](OC(=O)C4CCCCC4)[C@H]1CC[C@H]2[C@]12CCCC(C)(C)[C@H]1[C@H](O)[C@@]3(O)OC2 | 
35 | 1.32 | C=C1C(=O)[C@]23[C@H](OC(=O)/C=C/c4ccc[nH]4)[C@H]1CC[C@H]2[C@]12CCCC(C)(C)[C@H]1[C@H](O)[C@@]3(O)OC2 | 
36 | 1.23 | C=C1C(=O)[C@]23[C@H](O)[C@H]1CC[C@H]2[C@]12CCCC(C)(C)[C@H]1[C@H](O)[C@@]3(O)OC2 | IC50 [2]: 2.8 µM; IC50 [3]: 2.04 µM; IC50 [4]: 3.14 µM
37 | 5.32 | C=C1C(=O)[C@]23[C@H](OC(=O)/C=C(\C)c4ccccc4)[C@H]1CC[C@H]2[C@]12CCCC(C)(C)[C@H]1[C@H](O)[C@@]3(O)OC2 | 
38 | 0.71 | C=C1C(=O)[C@]23[C@H](OC(=O)/C=C/c4ccccc4)[C@H]1CC[C@H]2[C@]12C=CCC(C)(C)[C@H]1[C@H](O)[C@@]3(O)OC2 | 
39 | 0.46 | C=C1C(=O)[C@]23[C@H](OC(=O)/C=C/c4cncnc4)[C@H]1CC[C@H]2[C@]12C=CCC(C)(C)[C@H]1[C@H](O)[C@@]3(O)OC2 | 
40 | 2.74 | C=C1C(=O)[C@]23[C@H](OC(=O)CCc4ccccc4)[C@H]1CC[C@H]2[C@]12C=CCC(C)(C)[C@H]1[C@H](O)[C@@]3(O)OC2 | 
41 |  | C=C1C(=O)[C@]23[C@H](O)[C@H]1CC[C@H]2[C@@]12CO[C@]3(O)[C@@H](O)[C@@H]1C(C)(C)CC[C@@H]2O [ORIDONIN] | IC50 [5]: 17.3 µM; IC50 at 72 h [6]: 34.3 µM; IC50 [2]: 11.1 µM; selectivity ratio [7]: 2.73; IC50 [8]: 14.1 µM; IC50 [3]: 11.6 µM; IC50 [9]: 4.88 µM; IC50 [10]: 11.6 µM; IC50 [11]: 15.1 µM; IC50 [4]: 12.6 µM
42 | 1.6 | C=C1C(=O)[C@]23[C@H](OC(=O)/C=C/c4ccccn4)[C@H]1CC[C@H]2[C@]12C=CCC(C)(C)[C@H]1[C@H](O)[C@@]3(O)OC2 | 
43 | 0.9 | C=C1C(=O)[C@]23[C@H](OC(=O)/C=C/c4ccnc(F)c4)[C@H]1CC[C@H]2[C@]12CCCC(C)(C)[C@H]1C[C@@]3(O)OC2 | 

Row | Compound | IC50 [1] [µM] | also measured
44 | C=C1C(=O)[C@]23[C@H](O)[C@H]1CC[C@H]2[C@]12C=CCC(C)(C)[C@H]1[C@H](O)[C@@]3(O)OC2 | 2.04 | IC50 [2]: 3.5 µM; IC50 [3]: 1.88 µM; IC50 [4]: 3.76 µM
